Laboratory results published in US7132271B2, “Methods for enhancing the production of viral vaccines in cell culture” (priority 1995, dated 2006).

System: human PKR
Assay: Western blot analysis of PKR protein in U937 transfectants
Format: cell-based
Conditions: U937-neo cells
Description: Cell extracts (100 μg) were separated on a 10% SDS-polyacrylamide gel and electrotransferred onto nitrocellulose membrane. The membranes were incubated with anti-PKR monoclonal antibody (Meurs et al. Cell 1990) at 1:1000 in BLOTTO (5% nonfat dry milk, 0.05% Tween-20 in Tris-buffered saline). Final detection of PKR was facilitated by probing with a secondary horseradish peroxidase-conjugated goat anti-mouse antibody (Santa Cruz Biotech) and using a chemiluminesence method (Amersham ECL).

Substance: IFN-γ: recombinant human IFN-γ, Amgen
- PKR protein level following treatment with IFN: increased
